Experiment [1] deals with T1, reuptake of dopamine (DA) in synaptosomes (Rattus norvegicus, UniProt P23977).
T1 construct: in synaptosomes as described in WO 97/16451; from tissue
The experiment in a line: In vitro inhibition of dopamine reuptake in synaptosomes. Format: biochemical. How it is done:
(§1) A number of compounds were tested for their ability to Inhibit the reuptake of the monoamine neurotransmitters dopamine (DA) noradrenaline(NA) and serotonin (5-HT) in synaptosomes as described in WO 97/16451.
(§2) The test values are given as IC50 (the concentration (μM) of the test substance which inhibits the specific binding of ^3H-DA, ^3H-NA, or 3H-5-HT by 50%).

The target of experiment [2] is T2, reuptake of serotonin (5-HT) in synaptosomes (Rattus norvegicus, UniProt P31652).
T2 construct: in synaptosomes as described in WO 97/16451; from tissue
T2 sequence (P31652 whole entry): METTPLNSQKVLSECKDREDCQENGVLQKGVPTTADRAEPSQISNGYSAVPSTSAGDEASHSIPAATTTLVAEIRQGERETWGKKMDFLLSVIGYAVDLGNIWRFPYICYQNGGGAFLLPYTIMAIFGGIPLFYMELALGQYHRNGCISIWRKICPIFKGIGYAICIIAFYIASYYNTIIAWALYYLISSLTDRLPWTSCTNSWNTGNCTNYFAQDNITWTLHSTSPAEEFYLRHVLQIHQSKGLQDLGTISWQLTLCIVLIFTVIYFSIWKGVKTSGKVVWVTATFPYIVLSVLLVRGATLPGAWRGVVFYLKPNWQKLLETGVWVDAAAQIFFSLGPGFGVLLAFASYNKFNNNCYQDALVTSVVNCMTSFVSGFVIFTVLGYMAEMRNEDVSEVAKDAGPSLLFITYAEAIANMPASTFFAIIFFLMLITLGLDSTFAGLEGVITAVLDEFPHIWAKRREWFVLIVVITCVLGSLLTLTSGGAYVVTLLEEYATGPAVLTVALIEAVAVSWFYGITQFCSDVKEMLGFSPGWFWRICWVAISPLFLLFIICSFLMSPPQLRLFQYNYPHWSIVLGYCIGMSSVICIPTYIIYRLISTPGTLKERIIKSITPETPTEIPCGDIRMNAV
Nature of the experiment: In vitro inhibition of serotonin reuptake in synaptosomes. Format: biochemical. How it is done: as §1, §2

Where a name gives a salt, the structure may show the parent alone.

Here are results for three compounds from patent US7250425B2, “8-aza-bicyclo[3.2.1]octane derivatives and their use as monoamine neurotransmitter re-uptake inhibitors” (priority 2003, dated 2007).

As usually defined, the IC50 is the midpoint of a concentration-inhibition curve.

T1 sequence (P23977 whole entry): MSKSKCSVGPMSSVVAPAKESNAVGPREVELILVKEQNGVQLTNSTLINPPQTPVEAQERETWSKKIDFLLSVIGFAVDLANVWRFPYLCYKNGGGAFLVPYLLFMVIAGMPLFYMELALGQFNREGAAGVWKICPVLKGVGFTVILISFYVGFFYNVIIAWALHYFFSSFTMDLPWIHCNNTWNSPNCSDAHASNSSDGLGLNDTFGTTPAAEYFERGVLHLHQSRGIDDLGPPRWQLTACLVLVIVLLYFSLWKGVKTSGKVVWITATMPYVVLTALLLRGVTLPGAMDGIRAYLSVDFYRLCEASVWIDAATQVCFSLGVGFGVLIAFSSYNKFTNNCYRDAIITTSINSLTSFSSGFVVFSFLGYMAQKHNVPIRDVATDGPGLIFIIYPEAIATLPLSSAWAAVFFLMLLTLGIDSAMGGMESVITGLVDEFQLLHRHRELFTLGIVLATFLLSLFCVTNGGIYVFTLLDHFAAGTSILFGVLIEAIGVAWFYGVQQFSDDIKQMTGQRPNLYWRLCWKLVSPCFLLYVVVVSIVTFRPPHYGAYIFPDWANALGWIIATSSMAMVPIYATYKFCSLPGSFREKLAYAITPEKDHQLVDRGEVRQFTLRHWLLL

For the compound `CN1C2CCC1[C@H](COc1cccc(Cl)c1Cl)[C@@H](c1cccc(Cl)c1)C2` (stereo partly drawn) [1st compound of method D, (2R,3S)-2-(2,3-Dichlorophenoxymethyl)-8-methyl-3-(3-chlorophenyl)-8-aza-bicyclo[3.2.1]octane fumaric acid salt], the IC50 is 62 nM in experiment [1] and 0.72 nM in experiment [2].

Turning to `Clc1cccc(C2CC3CCC(N3)C2COc2cccc(Cl)c2Cl)c1` [1st compound of method E, (2R,3S)-2-(2,3-Dichlorophenoxymethyl)-8-H-3-(3-chlorophenyl)-8-aza-bicyclo[3.2.1]octane fumaric acid salt], the IC50 in experiment [1] is 100 nM; in experiment [2] it was 6.2 nM.

With `Clc1cccc(C2CC3CCC(N3)C2COc2cccc3ccccc23)c1` [2nd compound of method E, (2R,3S)-2-(1-naphthyloxymethyl)-8-H-3-(3-chlorophenyl)-8-aza-bicyclo[3.2.1]octane fumaric acid salt], the IC50 was determined as 88 nM in experiment [1] and 13 nM in experiment [2].
